# Source: patent US11866420B2, “Hydrochloride salt forms of a sulfonamide structured kinase inhibitor” (Aurigene Oncology Limited, priority 2018, dated 2024)
# Structures can show the parent of a compound that is named as a salt.
# Key:
# [1] = Long-term stability of forms 3 and 8 at different storage conditions; assay type: physicochemical
# Procedure: Long-term stability of crystalline forms 3 and 8 at different storage conditions was studied. The conditions were a) 25° C./RH 60% in a closed vessel, b) 40° C./RH 75% in a closed vessel, c) 40° C./RH 75% in an open vessel and d) 25° C./RH 100% in an open vessel.
# [2] = Hygroscopicity (Dynamic Vapour Sorption); assay type: physicochemical; conditions: between 20%-90% RH, T=25° C., DVS mass change
# Procedure: The hygroscopicity of the crystalline forms 1, 3, 5 and 8 was evaluated using DVS-1 Dynamic Vapour Sorption equipment (Surface Measurement Systems Ltd, London, UK). The amount of 5-10 mg of each crystalline form was equilibrated at 20% RH. The mass change (%) was recorded at 30%, 40%, 50%, 60%, 70%, 80% and 90% RH at T=25° C. The equilibration condition at each point was dm/dt≤0.0003.
# [3] = Thermogravimetric analysis (TGA), onset of disproportionation; assay type: physicochemical; conditions: for Onset temperature of disproportionation: TGA with head space mass spectroscopy, start of rapid evaporation of Cl ion
# Procedure: The TGA thermograms for the crystalline forms 1, 3, 5 and 8 were collected on TGA equipment (TA Instruments). The gases recovered during each run were analyzed by head space mass spectroscopy (Agilent GS system). The measurement allowed to register the temperature at which rapid evaporation of Cl ion (disproportionation) started.
# The onset temperature of disproportionation for crystalline forms 1, 3, 5 and 8 was determined based on TGA measurements.
# [4] = Stability of the crystalline forms in different water activity conditions (slurry experiments); assay type: physicochemical; conditions: for Resulting crystalline form: HCl added; for Water activity conditions under which the crystalline form is favoured: water/methanol slurries with HCl, room temperature, 3 days
# Text: Stability of the crystalline forms in different water activity conditions was studied in slurry experiments where crystalline forms 1 and 3 were stirred for 3 days at room temperature in mixtures of water and methanol in the presence of HCl to maintain acidic conditions.
# Water solubility = assay type: physicochemical; conditions: physiological pH range
# [5] = Bioavailability after oral administration; assay type: in vivo
compound,measurement,setting,value
"Cn1cc(-c2ccc3c(c2)ncn3-c2cc(NS(=O)(=O)C3CC3)cc(-c3ccc(F)cc3F)c2)cn1 [Form 8, N-(2′,4′-difluoro-5-(5-(1-methyl-1H-pyrazol-4-yl)-1H-benzo[d]imidazol-1-yl)-[1,1′-biphenyl]-3-yl)cyclopropanesulfonamide hydrochloride]",Long-term stability: stable up to,"[1]; 25° C./RH 60% closed vessel, listed as Crystalline form 8, hydrochloride",≥ 36 months
same,Long-term stability: stable up to,[1]; 25° C./RH 100% open vessel,≥ 2 months
same,Long-term stability: stable up to,"[1]; 40° C./RH 75% closed vessel, listed as Crystalline form 8, hydrochloride",≥ 6 months
same,Long-term stability: stable up to,[1]; 40° C./RH 75% open vessel,≥ 1 month
same,Stability at storage conditions (overall),"[1]; all storage conditions (25° C./RH 60%, 40° C./RH 75% closed and open, 25° C./RH 100% open)",good stability
same,Hygroscopicity,"[2]; listed as form 8, hydrochloride",practically non-hygroscopic
same,Onset temperature of disproportionation,"[3]; listed as 8, hydrochloride",187 °C
same,Thermal stability against disproportionation,"[3]; TGA, compared among crystalline forms 1, 3, 5 and 8",highest thermal stability
"Cn1cc(-c2ccc3c(c2)ncn3-c2cc(NS(=O)(=O)C3CC3)cc(-c3ccc(F)cc3F)c2)cn1 [Form 1, N-(2′,4′-difluoro-5-(5-(1-methyl-1H-pyrazol-4-yl)-1H-benzo[d]imidazol-1-yl)-[1,1′-biphenyl]-3-yl)cyclopropanesulfonamide hydrochloride]",Resulting crystalline form,"[4]; 16% H2O in MeOH, water activity 0.44, slurry 3 days at room temperature",Form 3 + Form 8
same,Resulting crystalline form,"[4]; 26.6% H2O in MeOH, water activity 0.59, slurry 3 days at room temperature",Form 3 + Form 8
same,Resulting crystalline form,"[4]; 45.2% H2O in MeOH, water activity 0.75, slurry 3 days at room temperature",Form 8
same,Resulting crystalline form,"[4]; 71.5% H2O in MeOH, water activity 0.88, slurry 3 days at room temperature",Form 5
same,Hygroscopicity,[2]; hydrochloride,particularly low hygroscopicity
same,Onset temperature of disproportionation,"[3]; listed as 1, hydrochloride",148 °C
"Cn1cc(-c2ccc3c(c2)ncn3-c2cc(NS(=O)(=O)C3CC3)cc(-c3ccc(F)cc3F)c2)cn1 [Form 3, N-(2′,4′-difluoro-5-(5-(1-methyl-1H-pyrazol-4-yl)-1H-benzo[d]imidazol-1-yl)-[1,1′-biphenyl]-3-yl)cyclopropanesulfonamide hydrochloride]",Resulting crystalline form,"[4]; 4.7% H2O in MeOH, water activity 0.17, slurry 3 days at room temperature",Form 3
same,Resulting crystalline form,"[4]; 10% H2O in MeOH, water activity 0.31, slurry 3 days at room temperature",Form 3
same,Resulting crystalline form,"[4]; MeOH, water activity 0, slurry stirred 3 days at room temperature",Form 3
same,Water activity conditions under which the crystalline form is favoured,"[4]; listed as crystalline form 3, hydrochloride",ambient to about 0.3
same,Long-term stability: stable up to,"[1]; 25° C./RH 60% closed vessel, listed as Crystalline form 3, hydrochloride",Stable up to 36 months
same,Long-term stability: time after which form changed,[1]; 25° C./RH 100% open vessel,1 week
same,Long-term stability: change of crystalline form,"[1]; 25° C./RH 100% open vessel, hydrochloride",5
same,Long-term stability: change of crystalline form,"[1]; 25° C./RH 100% open vessel, listed as Crystalline form 3, hydrochloride",Change to form 5 after
same,Long-term stability: stable up to,"[1]; 40° C./RH 75% closed vessel, listed as Crystalline form 3, hydrochloride",Stable up to 12 months
same,Long-term stability: time after which form changed,[1]; 40° C./RH 75% open vessel,1 days
same,Long-term stability: change of crystalline form,"[1]; 40° C./RH 75% open vessel, hydrochloride",changes to form 8
same,Long-term stability: change of crystalline form,"[1]; 40° C./RH 75% open vessel, listed as Crystalline form 3, hydrochloride",Change to form 8 after
same,Onset temperature of disproportionation,"[3]; listed as 3, hydrochloride",171 °C
"Cn1cc(-c2ccc3c(c2)ncn3-c2cc(NS(=O)(=O)C3CC3)cc(-c3ccc(F)cc3F)c2)cn1 [Compound (I), N-(2′,4′-difluoro-5-(5-(1-methyl-1H-pyrazol-4-yl)-1H-benzo[d]imidazol-1-yl)-[1,1′-biphenyl]-3-yl)cyclopropanesulfonamide]",Solubility in water,Water solubility,practically insoluble
same,Bioavailability after oral administration,[5],very low
"Cn1cc(-c2ccc3c(c2)ncn3-c2cc(NS(=O)(=O)C3CC3)cc(-c3ccc(F)cc3F)c2)cn1 [Form 5, N-(2′,4′-difluoro-5-(5-(1-methyl-1H-pyrazol-4-yl)-1H-benzo[d]imidazol-1-yl)-[1,1′-biphenyl]-3-yl)cyclopropanesulfonamide hydrochloride]",Water activity conditions under which the crystalline form is favoured,"[4]; listed as crystalline form 5, hydrochloride",about 0.9
same,Onset temperature of disproportionation,"[3]; listed as 5, hydrochloride",145 °C
